We go through three compounds from PMC12064818, “A general assay platform to study protein pharmacology using ligand-dependent structural dynamics” (Nature Communications, 2025).

The target of one assay is T1, FLuc-C-HiBiT (Photinus pyralis, UniProt P08659).
T1 construct: firefly luciferase with C-terminal HiBiT tag, E. coli expressed
Kind of assay: biochemical. The following applies: enzyme activity, 10 uM ATP; read-out: IC50 or SDR50 (mM) / FLuc E.

In the next assay the target is iPGM. Conditions: surface plasmon resonance kinetics; cited from earlier work. In general terms: Surface plasmon resonance follows binding to a sensor surface in real time, without labels.
A further assay has as its target B. malayi iPGM-C-HiBiT (Brugia malayi, UniProt Q4VWF8). Kind of assay: biochemical.
Assay [1] deals with T2, FLuc-N-HiBiT (firefly luciferase) (Photinus pyralis, UniProt P08659, form not given/L550V). Kind of assay: Firefly luciferase (FLuc) enzymatic luminescence assay, FLuc-N-HiBiT. In kind it is biochemical. The following applies: for Functional Enzymatic Assay: 10 nM FLuc-N-HiBiT, replicates; for Functional Enzymatic Assay / 10 nM FLuc-N-HiBiT Enz, Mean: Log [PTC124]. The procedure: The enzyme activity of FLuc-N-HiBiT, FLuc-C-HiBiT, and FLuc-C-NLuc was measured similar to P. pyralis firefly luciferase (FLuc) as previously described. […] Compounds and controls were added to each plate as described in Supplementary Data 8 with a Hornet pintool system (Wako Automation). Compounds were incubated with respective enzymes for 30–60 min at room temperature protected from light and covered by solid metal lid to prevent evaporation. […] Luciferin was incubated with FLuc enzyme for 5 min before FLuc activity was then measured on a ViewLux CCD imager (PerkinElmer), with exposure times up to ten seconds with medium to high gain settings. Data were normalized to average no enzyme control as 100% enzyme inhibition and average DMSO neutral control. See Supplementary Table 4 for additional details.
T2 sequence (P08659 2-550 L550V, form open): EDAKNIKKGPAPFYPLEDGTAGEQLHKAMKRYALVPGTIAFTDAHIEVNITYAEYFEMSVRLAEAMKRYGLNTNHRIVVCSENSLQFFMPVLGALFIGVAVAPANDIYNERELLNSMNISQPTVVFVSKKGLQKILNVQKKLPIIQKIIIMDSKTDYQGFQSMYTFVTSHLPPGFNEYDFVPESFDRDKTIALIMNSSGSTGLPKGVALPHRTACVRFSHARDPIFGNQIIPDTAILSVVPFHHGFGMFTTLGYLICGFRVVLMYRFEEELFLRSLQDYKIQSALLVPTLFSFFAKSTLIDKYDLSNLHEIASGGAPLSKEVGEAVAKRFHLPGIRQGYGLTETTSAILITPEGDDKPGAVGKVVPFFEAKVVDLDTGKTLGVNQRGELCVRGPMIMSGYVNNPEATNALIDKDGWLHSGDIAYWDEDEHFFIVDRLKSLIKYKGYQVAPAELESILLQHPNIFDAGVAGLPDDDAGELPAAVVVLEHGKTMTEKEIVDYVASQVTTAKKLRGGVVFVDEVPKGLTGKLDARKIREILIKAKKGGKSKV
Supplementary Table 4. Protocol for Firefly luciferase (FLuc) and NanoLuc (NLuc) enzymatic
Supplementary Table 4: Protocol for Firefly luciferase (FLuc) and NanoLuc (NLuc) enzym atic lum inescence assay
Firefly luciferase (FLuc) enzym atic lum inescence assay
Sequence Param eter Value Description
No enzym e control (colum n 1) and enzym e solution (1- 10 nM FLuc enzym e) in FLuc assay
1 Reagent 4 µLbuffer; white/solid bottom , m edium bind, high base plates (Greiner), dispensed with BioRaptr
com pounds transferred to respective colum ns with Pintool
2b Test Com pounds 23 nLconcentration range) in colum ns 5- 48; com pounds transferred to respective wells with
3 Incubation 30 m in Incubate enzym e + com pounds at am bient tem p for 30 m in, protected from light
4 Reagent 3 µLAdd 3 µL of D-luciferin substrate solution to each well (final concentration 10 µM); dispensed
5 Detector ViewLux Read plate lum inescence (Exposure = 1- 10 sec; Gain = Medium -high; Speed = Slow;
Dispensing solution was diluted in 1X PBS, pH 7.4. […]

Assay [2] has as its target T2, FLuc-N-HiBiT (firefly luciferase). The assay can be described thus: SDR assay, FLuc-N-HiBiT. Conditions: for 10 nM FLuc-N-HiBiT + 10 mM ATP, Mean / 10 nM FLuc-N-HiBiT No ATP, Mean: Log [PTC124]. For orientation: HiBiT is a short tag that completes a luciferase, so light tracks the accessible tagged protein.

Where “and” joins values, the source holds several entries; their conditions need not be identical. Equal entries are not always repeated.

T1 sequence (P08659 whole entry, looked up): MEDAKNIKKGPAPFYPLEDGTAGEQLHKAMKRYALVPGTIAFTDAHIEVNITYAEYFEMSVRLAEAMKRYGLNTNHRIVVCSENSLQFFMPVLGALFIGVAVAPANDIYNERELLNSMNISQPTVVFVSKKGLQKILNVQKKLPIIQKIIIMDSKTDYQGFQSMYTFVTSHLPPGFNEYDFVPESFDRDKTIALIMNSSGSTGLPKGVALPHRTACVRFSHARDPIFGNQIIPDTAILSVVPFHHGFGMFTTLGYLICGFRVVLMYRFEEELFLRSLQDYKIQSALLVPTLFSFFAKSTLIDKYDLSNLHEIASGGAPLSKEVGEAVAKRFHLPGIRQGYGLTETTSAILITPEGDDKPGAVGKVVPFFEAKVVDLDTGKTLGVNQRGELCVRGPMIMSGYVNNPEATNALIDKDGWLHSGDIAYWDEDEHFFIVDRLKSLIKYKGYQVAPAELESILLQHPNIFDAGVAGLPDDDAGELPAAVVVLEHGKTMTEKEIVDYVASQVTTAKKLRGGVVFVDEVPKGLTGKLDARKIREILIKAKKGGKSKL
B. malayi iPGM-C-HiBiT, sequence (Q4VWF8 2-515): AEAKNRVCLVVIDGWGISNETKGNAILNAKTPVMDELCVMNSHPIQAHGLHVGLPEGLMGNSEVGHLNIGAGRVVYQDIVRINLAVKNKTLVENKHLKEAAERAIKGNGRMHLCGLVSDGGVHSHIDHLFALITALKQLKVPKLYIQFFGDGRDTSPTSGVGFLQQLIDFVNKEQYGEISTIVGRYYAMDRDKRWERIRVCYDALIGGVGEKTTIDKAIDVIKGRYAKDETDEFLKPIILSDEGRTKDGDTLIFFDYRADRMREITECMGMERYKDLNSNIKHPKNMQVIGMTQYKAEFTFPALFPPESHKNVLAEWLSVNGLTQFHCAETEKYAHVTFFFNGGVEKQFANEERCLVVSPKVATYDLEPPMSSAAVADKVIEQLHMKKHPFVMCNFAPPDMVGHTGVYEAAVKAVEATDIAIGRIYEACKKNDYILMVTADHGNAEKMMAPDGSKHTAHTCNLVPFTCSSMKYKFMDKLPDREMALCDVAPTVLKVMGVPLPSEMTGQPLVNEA

Regarding `CC(CNC(=O)C1CCN(C(=O)c2ncn3c2COC(c2ccccc2)C3)CC1)c1ccccc1` (stereo not shown) [compound 00449795], on FLuc-C-HiBiT, the IC50 worked out at 0.00248 mM.
`CC(C)C[C@H](NC(=O)[C@H](Cc1ccc(O)cc1)NC(=O)[C@@H]1CSCC(=O)N[C@H](Cc2ccc(O)cc2)C(=O)N[C@@H](CC(=O)O)C(=O)N[C@@H](Cc2ccc(O)cc2)C(=O)N2CCC[C@H]2C(=O)NCC(=O)N[C@@H](CC(=O)O)C(=O)N[C@@H](Cc2ccc(O)cc2)C(=O)N1)C(=O)N[C@@H](Cc1ccc(O)cc1)C(=O)NCC(=O)N[C@H](C(=O)N[C@@H](CS)C(=O)NCC(N)=O)[C@@H](C)O` [Ce-2]: the Kd (commonly the constant that tells how readily two partners part at equilibrium) on iPGM was 0.038 nM. On B. malayi iPGM-C-HiBiT, the concentration giving a half-maximal response (EC50) (in general, the concentration at which the effect is half-maximal) was 40.7 nM.
`O=C(O)c1cccc(-c2noc(-c3ccccc3F)n2)c1` [PTC124, reference compound]: the “Functional Enzymatic Assay” value in assay [1] (M -4.48) was 7.2 RLU and 7.9 RLU (2×) and 7.3 RLU and 6.7 RLU and 7.1 RLU; in assay [1] (M -4.96), 8.6 RLU and 8.1 RLU and 7.7 RLU and 8.3 RLU and 7.1 RLU and 7.2 RLU; in assay [1] (M -5.44), 8.3 RLU (2×) and 8.6 RLU and 8.4 RLU and 7.5 RLU (2×); in assay [1] (M -5.91) it was 8.7 RLU (2×) and 9.2 RLU and 8.9 RLU and 8.3 RLU and 8.5 RLU; in assay [1] (M -6.39), 10.6 RLU and 10.5 RLU and 10.2 RLU (2×) and 10.1 RLU and 9.7 RLU; in assay [1] (M -6.87) it was 14.3 RLU (2×) and 14.5 RLU and 14.7 RLU and 15.0 RLU and 14.8 RLU. Moreover, the “Functional Enzymatic Assay” value was 29.6 RLU and 29.7 RLU and 30.2 RLU and 33.4 RLU and 41.4 RLU and 37.0 RLU in assay [1] (M -7.35); 144.5 RLU and 149.3 RLU and 178.2 RLU and 166.0 RLU and 190.3 RLU and 174.6 RLU in assay [1] (M -7.82); 301.7 RLU and 309.5 RLU and 327.2 RLU and 328.1 RLU and 308.7 RLU and 316.4 RLU in assay [1] (M -8.30); 370.7 RLU and 364.6 RLU and 370.3 RLU and 363.9 RLU and 364.3 RLU and 365.0 RLU in assay [1] (M -8.78); 391.9 RLU and 389.1 RLU and 396.6 RLU and 382.9 RLU and 381.5 RLU and 379.2 RLU in assay [1] (M -9.25); 393.8 RLU and 390.8 RLU and 393.2 RLU and 390.0 RLU and 387.4 RLU and 383.0 RLU in assay [1] (M -9.73). For the same compound, the “Functional Enzymatic Assay” value in assay [1] (M -10.21) is 400.1 RLU and 398.5 RLU and 399.0 RLU and 394.9 RLU and 391.0 RLU and 381.4 RLU; in assay [1] (M -10.69), 399.5 RLU and 393.3 RLU and 400.5 RLU and 393.7 RLU and 383.2 RLU and 377.0 RLU; in assay [1] (M -11.16), 392.3 RLU and 386.5 RLU and 400.5 RLU and 393.0 RLU and 385.0 RLU and 368.5 RLU; in assay [1] (M -11.64), 389.5 RLU and 376.4 RLU and 395.8 RLU and 380.1 RLU and 381.7 RLU and 371.3 RLU. Moreover, the “pIC50, FLuc-N-HiBiT (10 nM)” value in assay [1] (10 μM ATP) is recorded as 7.68 ± 0.02. Also, the “10 nM FLuc-N-HiBiT Enz, Mean” value is recorded as 7.3 RLU in assay [1] (M (Enz) -4.24); 7.8 RLU in assay [1] (M (Enz) -4.72); 8.1 RLU in assay [1] (M (Enz) -5.19); 8.7 RLU in assay [1] (M (Enz) -5.67); 10.2 RLU in assay [1] (M (Enz) -6.15); 14.6 RLU in assay [1] (M (Enz) -6.63). For the same compound, the “10 nM FLuc-N-HiBiT Enz, Mean” value in assay [1] (M (Enz) -7.10) was determined as 33.5 RLU; in assay [1] (M (Enz) -7.58) it was 167.1 RLU; in assay [1] (M (Enz) -8.06), 315.3 RLU; in assay [1] (M (Enz) -8.53), 366.5 RLU; in assay [1] (M (Enz) -9.01), 386.9 RLU; in assay [1] (M (Enz) -9.49), 389.7 RLU. Also, the “10 nM FLuc-N-HiBiT Enz, Mean” value in assay [1] (M (Enz) -9.97) is 394.1 RLU; in assay [1] (M (Enz) -10.44) it was 391.2 RLU; in assay [1] (M (Enz) -10.92) it was 387.6 RLU; in assay [1] (M (Enz) -11.40), 382.5 RLU. The “pSDR50, FLuc-N-HiBiT (10 nM)” value is 6.64 ± 0.05 in assay [2] (0 μM ATP) and 8.07 ± 0.05 in assay [2] (10 μM ATP). The “10 nM FLuc-N-HiBiT + 10 mM ATP, Mean” value is reported as 41609.1 RLU in assay [2] (M (SDR) -4.48); 42409.7 RLU in assay [2] (M (SDR) -4.96); 42866.9 RLU in assay [2] (M (SDR) -5.44); 43432.3 RLU in assay [2] (M (SDR) -5.91); 43449.2 RLU in assay [2] (M (SDR) -6.39); 43724.9 RLU in assay [2] (M (SDR) -6.87). In addition, the “10 nM FLuc-N-HiBiT + 10 mM ATP, Mean” value in assay [2] (M (SDR) -7.35) stood at 42289.0 RLU; in assay [2] (M (SDR) -7.82), 38396.4 RLU; in assay [2] (M (SDR) -8.30), 32370.1 RLU; in assay [2] (M (SDR) -8.78), 29426.2 RLU; in assay [2] (M (SDR) -9.25), 28882.5 RLU; in assay [2] (M (SDR) -9.73), 28374.1 RLU. In addition, the “10 nM FLuc-N-HiBiT + 10 mM ATP, Mean” value in assay [2] (M (SDR) -10.21) turned out to be 28052.8 RLU; in assay [2] (M (SDR) -10.69), 27509.0 RLU; in assay [2] (M (SDR) -11.16), 27726.0 RLU; in assay [2] (M (SDR) -11.64), 27670.3 RLU. For the same compound, the “10 nM FLuc-N-HiBiT No ATP, Mean” value turned out to be 44446.2 RLU in assay [2] (M (SDR) -4.48); 44381.0 RLU in assay [2] (M (SDR) -4.96); 43085.6 RLU in assay [2] (M (SDR) -5.44); 42891.6 RLU in assay [2] (M (SDR) -5.91); 36744.1 RLU in assay [2] (M (SDR) -6.39); 28974.8 RLU in assay [2] (M (SDR) -6.87). In addition, the “10 nM FLuc-N-HiBiT No ATP, Mean” value in assay [2] (M (SDR) -7.35) came to 26642.9 RLU; in assay [2] (M (SDR) -7.82), 23375.2 RLU; in assay [2] (M (SDR) -8.30) it was 21721.8 RLU; in assay [2] (M (SDR) -8.78), 22027.4 RLU; in assay [2] (M (SDR) -9.25), 22062.2 RLU; in assay [2] (M (SDR) -9.73), 21924.6 RLU. Also, the “10 nM FLuc-N-HiBiT No ATP, Mean” value in assay [2] (M (SDR) -10.21) is recorded as 22527.7 RLU; in assay [2] (M (SDR) -10.69), 22231.2 RLU; in assay [2] (M (SDR) -11.16), 21138.2 RLU; in assay [2] (M (SDR) -11.64), 21494.9 RLU.
